Measurements published in patent publication US11497796B2, “Agents directed against a cis RGMa/neogenin interaction or lipid rafts and use of the same in methods of treatment” (UNIVERSITY HEALTH NETWORK, priority 2013, dated 2022).

Key:
[1] = test system: temporal retinal explants (axonal outgrowth); assay: Retinal explants outgrowth assay; type: cell-based, chick; conditions: for outgrowth of retinal explants grown on RGMa proteins, peptide added to medium: 5 μg/ml in the medium
Procedure: Poly-L-Lysine (SIGMA; 10 μg/ml) coated glass coverslips were treated with Laminin (Invitrogen; 10 μg/ml) and RGMa proteins (5 μg/ml) and incubated for 3 hours at room temperature. Temporal retinal explants were cultured on protein-coated surfaces for 18 hours. To disrupt the lipid rafts, explants were pretreated with 10 mM methyl-β-cyclodextrin (MβCD) for 12 minutes or 2 U/ml cholesterol oxidase (CO) for 1 hour at 37° C. Explants were then fixed with 4% paraformaldehyde (PFA) and stained with Alexa488-phalloidin. Fiber length was quantified using Image Pro 5.0. For immunolocalization, explants were treated with Cholera Toxin B-FITC (C1655; Sigma; 10 mg/mL) and patched, fixed and stained with Neogenin antibody. Retinal ganglion cells (RGCs) were electroporated with RGMa-His and cultured for 18 hours. The cells were fixed and stained with Neogenin and His-tag antibodies.
Retinal explants outgrowth assay. Poly-L-Lysine (PLL; SIGMA; 10 μg/ml) coated glass coverslips were treated with Laminin (10 μg/ml; Invitrogen) and RGMa proteins (5 μg) and incubated for 3 hrs at room temperature. PLL treated coverslips were coated with myelin overnight (6 μg/cm2), followed by coating with Laminin. Temporal retinal explants were cultured on either myelin or protein-coated surfaces in DMEM F-12 media (2% chick serum, 10% FBS) for 18 h. To disrupt rafts, explants were pre-treated with 10 mM MβCD for 12 min or 2 U/ml CO for 1 h at 37° C., washed, and cultured on protein coated coverslips. Explants were then fixed with 4% PFA and stained with Alexa488-fluor-phalloidin (1:50; Molecular Probes). Fiber length was quantified using Image Pro 5.0.
Statistical analysis of retinal outgrowth assays was performed using Student's two-tail t-test using Excel (Microsoft). Results were expressed as the mean±SEM (n=at least 3 independent experiments; 2 duplicates per independent experiment, >10 explants per duplicate).

[2] = test system: Neogenin association with lipid rafts; assay: Lipid raft fractionation of injected chick brain/tecta; type: in vivo; conditions: injected into chick brain/optic tectum one day before fractionation
Procedure: Injected chick E8 tecta (4Ig, 2 mg/mL; N-raft, 1 mg/mL; methyl-β-cyclodextrin (10 mM)) or transfected cells (Neogenin and RGMa) were collected 24 hours later, lysed and placed at the bottom of a sucrose density gradient (0.9-0.8-0.75-0.7-0.6-0.5-0.4-0.2 M) and centrifuged at 38,000 rpm for 16 hours in SW 60 rotor (Beckman Instruments Inc.).
Proteins (4Ig, 2 mg/ml; N-Raft, 1 mg/mL; RGMaΔ, 5 mg/ml; methyl-β-cyclodextrin (10 mM)) were injected in chick E8 optic tectum and tecta were collected 24 hrs later. HEK cells were transfected with Neogenin and different RGMa constructs and collected 48 hrs later. For treatment with RGMaΔ, Neogenin transfected cells were treated with RGMaΔ (2 mg/ml) and BMP-2 (100 nM) and further incubated for 1 hr at 37° C. Tecta (3 tecta for each set of experiment) and/or cells were solubilized in chilled buffer (25 mM Tris-HCl, pH 7.4, 150 mM NaCl, 5 mM EDTA and protease inhibitor cocktail) and passed through G25 and G30 needles, respectively, and centrifuged at 800 g for 10 min at 4° C. Cold Triton X-100 was added to the post nuclear supernatant to a final concentration of 1% and incubated on ice for 1 hour. 2× volume of 2M sucrose was added and sample placed at the bottom of a sucrose density gradient (0.9-0.8-0.75-0.7-0.6-0.5-0.4-0.2 M) and centrifuged at 38,000 rpm for 16 hours in SW 60 rotor (Beckman Instruments Inc.). 400 μl fractions were collected from top (top numbered 1 and next eight fractions numbered consequently) and stored at −80° C.
As such, it was examined if overexpressing recombinant 4Ig and N-Raft competed with the endogenous 4Ig and N-Raft domains to displace Neogenin from the lipid raft fractions to the non-lipid raft fractions. Specifically, N-Raft, 4Ig-domain, or a control peptide, which was amino acid residues 50-99 of RGMa (also referred to herein as “N-RGMa^50-99”), was injected into the optic tectum at E8. The tecta were collected a day later for fractionation-analyses.

[3] = test system: corticospinal tract axons; assay: Spinal cord injury, anterograde axonal tracing of the corticospinal tract with BDA; type: in vivo, rat; conditions: for maximal distance of labeled fibers caudal to the lesion site: 4IG IV or MBCD IP; for average length of the longest axon: BDA tracing post-SCI, respective controls 18±7 and 128±118 μm
Procedure: To visualize axons from the CST, anterograde axonal tracing with BDA was performed 6 weeks after SCI following completion of the functional assessment. Animals (n=3-4) from each group were randomly selected for BDA injection. Under deep anesthesia with 2% isofluorane with 1:2 NO:O2, rats were positioned in a stereotaxic frame and craniotomy was performed bilaterally to expose the sensorimotor cortex. BDA (10%, 10,000 MW; Invitrogen (Life Technologies)) was dissolved in 0.01M PBS and injected at 6 sites in each sensorimotor cortex using the following coordinates in reference to bregma: 1) 0.5 mm posterior and 1 mm lateral, 2) 0.5 mm posterior and 2 mm lateral, 3) 1 mm posterior and 1 mm lateral, 4) 1 mm posterior and 2 mm lateral, 5) 1.5 mm posterior and 1 mm lateral, 6) 1.5 mm posterior and 2 mm lateral. At each site, 1 μl of BDA was injected 1.2 mm from the surface of the cortex. Injections were made stereotactically with the aid of an operating microscope using a motorized microinjector at a rate of 0.5 μl/min with a 10 μl Hamilton syringe and a 32-gauge needle. The needle was left in place for an additional 2 min after injection to prevent leakage and the skin was closed with 6-0 Vicryl. Animals were allowed to survive for 3 more weeks and then intracardially perfused with 4% paraformaldehyde in 0.1 M PBS. BDA tissue including a 1.5 cm segment of tissue encompassing the lesion site was excised and processed as either 20 μm cryosections on slides or free-floating 30 μm sections. Free-floating sections were collected in 24-well plates containing PBS. Sections were pre-treated with 1% H2O2 in methanol for 10 min at RT, rinsed with PBS containing 0.5% Triton X for 30 min, and incubated in avidin-biotin peroxidase complex (Vectostain Elite ABC Kit Standard, Vector Laboratories, Burlington, ON, Canada) for 1 h at RT. Slides were washed with PBS, and then incubated with fluorescent Alexa-488 goat anti-mouse secondary antibody (1:500; Invitrogen (Life Technologies)) for 1 h at RT and coverslipped with Vectashield mounting medium containing DAPI (4′, 6-diamidino-2-phenyl-indole) (Vector Laboratories, Burlington, Ontario, Canada) nuclear counterstain.

Molecule | outgrowth of retinal explants grown on RGMa proteins, peptide added to medium [1] | effect on axonal outgrowth when provided as growth substrate (in trans) ([1]; protein as substrate) | Neogenin localization in membrane fractions [2] | axonal outgrowth on RGMa proteins after lipid raft disruption ([1]; 10 mM MβCD or 2 U/ml of CO) | maximal distance of labeled fibers caudal to the lesion site [3] | average length of the longest axon [3] | fiber length at 6 weeks compared to 4 weeks following injury ([3]; IV-injection)
N-Raft: peptide spanning amino acids 28-73 of RGMa (SEQ ID NO:2) (SPCKILKCNSEFWAATSGSHHLGAEETPEFCTALRAYAHCTRRTAR; N-Raft - amino acids 28-73 of RGMa) | restored outgrowth | no effect | relocalized from the lipid raft fractions to the heavy fractions | – | – | – | –
methyl-β-cyclodextrin [MβCD, reference compound] | – | – | recovered in the non-lipid raft fraction | restored to control values | about 4 mm | 2195±335 μm | –
4Ig: four immunoglobulin-like domains of Neogenin, amino acids 1 to 383 of Accession No. AAC59662 (SEQ ID NO:1) (protein, listed as Gallus gallus, Neogenin - Accession No. AAC59662) RSGPRSPLTGSVVRTFTPFYFLVEPMDILSVRGASVIMNCSSYCETPPKIEWKKDGTLLNLVSDDRRQLLPDGSLLINSVVHSKHNKPDEGYYQCVATVESLGSIVSRTAKLTVAGLPRFTSQPELSSVYKGNSAILNCEVNVDLAPFVRWEQDRQPLSLDDRVFKLPSGALLIGNATDTDGGFYRCVIESGGTPKYSEEAELKILPDPEEPQSLVFVRQPSSLTKVTGQNAVFPCVAGGFPTPYVRWTKNGEELITEDSERFALRAGGSLLISDVTEEDVGTYTCIADNENETIEAQAELAVQVPPEFLKRPANIYAHESMDIVFECEVTGKPTPTVKWVKNGDVVIPSDYFKIVKEHNLQVLGLVKSDEGFYQCIAENDVGNAQAGAQLIILDLDVAIPTLPPTSLTSATNDHLAPATTGPLPTAPRDVVATLVSTRFIRLTWRTPVSDPQGDNLTYSIFYTKEGINRERVENTSRPGETQVMIQNLMPETVYVFRVVAQNKHGHGESSAPLKVATQPEVQLPGPAPNIRAYAGSPTSVTVTWETPLSGNGEIQNYKLYYMEKGQDSEQDVDVAGLSYTITGLKKYTEYSFRVVAYNKHGPGVSTQDVVVRTLSDVPSAAPQNLTLEARNSKSIMLHWQPPPAGTHSGQITGYKIRYRKVSRKSDVTESVGGTQLFQLIEGLERGTEYNFRIAAMTVNGTGPATDWVSAETFESDLDESRVPEVPSSLHVRPLVTSIVVSWTPPENQNIVVRGYAIGYGIGSPHAQTIKVDYKQRYYTIENLDPSSHYVITLKAFNNVGEGIPLYESAVTRPHSDTSEVDLFVINAPYTPVPDPSPMMPPVGVQASILSHDTIRITWADNSLPKNQKITDARYYTVRWKTNIPANTKYKTANATTLSYLVTGLKPNTLYEFSVMVTKGRRSSTWSMTAHGTTFELVPTSPPKDVTVVSKEGKPRTIIVNWQPPSEANGKITGYIIYYSTDVNAEIHDWVIEPVVGNRLTHQIQELTLDTPYYFKIQARNSKGMGPMSEAVQFRTPKAESSDKMPNDQASGSAGKGSRPVDVGPDYKPPLSGSNSPHGSPTSPLDSNMLLVIIVSVGVITIVIVVIVAVFCTRRTTSHQKKKRAACKSVNGSHKYKGNSKDVKPPDLWIHHERLELKPIDKSPDPNPIMTDTPIPRNSQDITPVDNSMDSNIHQRRNSYRGHESEDSMSTLAGRRGMRPKMMMPFDSQPPQPVISAHPIHSLDNPHHHFHSGSLASPTRSYLHHQVSPWPVGTSMSHSDRANSTESVRNTPSSDTMPASSSQPCADHQDPDSSSGAYLGSAQEEDAAQSLPTAHVRPSHPLKSFAVPAVPAAGSAYDPTLPSTPLLTQQAPSHPVHSVKTASIGTLGRTRPPMPVVVPSAPDVQETTRMLEDSESSYEPDELTKEMAHLEGLMKDLNAITTA | restored outgrowth | – | relocalized from the lipid raft fractions to the heavy fractions | – | about 4 mm | 2875±228 μm | significantly longer at 6 weeks
